One data set has as its target T1, VldE (Streptomyces hygroscopicus, UniProt Q15JG1).
T1 construct: (His)6-tagged full-length protein, 497 residues per monomer, expressed in E. coli BL21(DE3) pLysS; homodimer; residues 1, 2 and 482-497 not modelled
T1 sequence (Q15JG1 1-497): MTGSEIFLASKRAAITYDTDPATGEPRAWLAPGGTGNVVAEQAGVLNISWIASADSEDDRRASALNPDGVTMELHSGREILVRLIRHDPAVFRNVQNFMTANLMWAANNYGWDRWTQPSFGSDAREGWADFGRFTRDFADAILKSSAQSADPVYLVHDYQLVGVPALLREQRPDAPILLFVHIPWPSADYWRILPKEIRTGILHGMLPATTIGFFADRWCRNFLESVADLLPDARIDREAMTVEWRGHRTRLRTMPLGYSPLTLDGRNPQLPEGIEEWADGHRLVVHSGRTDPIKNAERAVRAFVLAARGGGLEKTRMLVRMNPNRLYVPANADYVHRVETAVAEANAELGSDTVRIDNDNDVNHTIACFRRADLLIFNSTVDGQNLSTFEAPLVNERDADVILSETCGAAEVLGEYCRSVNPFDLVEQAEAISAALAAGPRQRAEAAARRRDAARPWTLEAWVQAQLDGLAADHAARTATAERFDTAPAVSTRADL
Briefly: X-ray crystal structure. In kind it is binding. The following applies: ternary complex with GDP, pH 8.0, open conformation.

Data set [1] deals with the molecule itself. Briefly: crystal structure; sitting drop vapor diffusion, 293 K, Tris-HCl pH 8.0 with polyethylene glycol 3,350; two monomers modeled within the asymmetric unit (apo, GDP, GDP+VDO), six monomers in VldE•GDP•TRE.

Consider `O=P(O)(O)OC[C@H]1C[C@H](N[C@H]2C=C(CO)[C@@H](O)[C@H](O)[C@H]2O)[C@H](O)[C@@H](O)[C@@H]1O` [VDO, validoxylamine A 7′-phosphate], for which the X-ray crystal structure result on VldE (2.11 Å, crystal soaked with 5 mM GDP and 10 mM VDO, cyclitol (donor and acceptor) sites) is reported as “The first crystallographic structure of VldE in complex with the entirety of its products”.
Take `OC[C@H]1O[C@H](O[C@H]2O[C@H](CO)[C@@H](O)[C@H](O)[C@H]2O)[C@H](O)[C@@H](O)[C@@H]1O` [TRE, trehalose]: on VldE (2.81 Å, 3% trehalose, 1 mM GDP, 20 mM MgCl2, cyclitol binding sites, bound in two of six monomers), the X-ray crystal structure entry was “structure of VldE in complex with both GDP and trehalose (VldE•GDP•TRE)”.

B1: VldE from S. hygroscopicus subsp. limoneus (enzyme)
chain: MTGSEIFLASKRAAITYDTDPATGEPRAWLAPGGTGNVVAEQAGVLNISWIASADSEDDRRASALNPDGVTMELHSGREILVRLIRHDPAVFRNVQNFMTANLMWAANNYGWDRWTQPSFGSDAREGWADFGRFTRDFADAILKSSAQSADPVYLVHDYQLVGVPALLREQRPDAPILLFVHIPWPSADYWRILPKEIRTGILHGMLPATTIGFFADRWCRNFLESVADLLPDARIDREAMTVEWRGHRTRLRTMPLGYSPLTLDGRNPQLPEGIEEWADGHRLVVHSGRTDPIKNAERAVRAFVLAARGGGLEKTRMLVRMNPNRLYVPANADYVHRVETAVAEANAELGSDTVRIDNDNDVNHTIACFRRADLLIFNSTVDGQNLSTFEAPLVNERDADVILSETCGAAEVLGEYCRSVNPFDLVEQAEAISAALAAGPRQRAEAAARRRDAARPWTLEAWVQAQLDGLAADHAARTATAERFDTAPAVSTRADL
notes: VldE, pseudo-glycosyltransferase of Streptomyces hygroscopicus subsp. limoneus; 994 possible residues for two monomers (497 each); the apo model lacks residues 1, 2 and 482-497; also called pseudo-glycosyltransferase VldE; (His)6-tagged VldE
For the molecule B1, the binding result in data set [1] is given as “binds”.

The values are drawn from paper PMC3441724, “Mechanistic Insights into Validoxylamine A 7'-Phosphate Synthesis by VldE Using the Structure of the Entire Product Complex” (PLoS ONE, 2012).
